Some results are limits rather than exact numbers.

For orientation: IC50 means the concentration that gives 50% inhibition.

The test system of one experiment is GP2D. Nature of the experiment: CellTiter-Glo Reagent cancer cell line proliferation assay, GP2D. Particulars: Homo sapiens, KRAS(G12D) heterozygous, 24 hr. The class given is cell-based. The source says: (§1) The following cancer cell lines were employed: • AsPC-1 human pancreatic adenocarcinoma, homozygous KRAS(G12D), (ATCC, #CRL-1682); A-427 human lung carcinoma, heterozygous KRAS(G12D), (ATCC, #HTB-53); AGS human gastric adenocarcinoma, heterozygous KRAS(G12D), (ATCC, #CRL-1739); GP2D human colon adenocarcinoma, heterozygous KRAS(G12D), (Sigma Aldrich, 95090714); SW1990 human pancreatic adenocarcinoma, homozygous KRAS(G12D), (ATCC, #CRL2172); LU65A human lung giant cell carcinoma, heterozygous KRAS(G12C), (JCRB Cell Bank, #JCRB0054); NCIH727 human lung carcinoid, heterozygous KRAS(G12V), (ATCC, #CRL-5815); MKN1 human gastric adenosquamous carcinoma KRAS (wt), (JCRB Cell Bank, #JCRB0252). Cell lines were cultured according to ATCC, JCRB and Sigma Aldrich recommendations.
(§2) Cells were plated in 96-well tissue culture plates at 4,000 cells/well and incubated at 37° C./5% CO2 for 24 hr in 100 μl of media. 3-fold serial dilutions of each test compound were prepared ranging from 20 μM to 1.02 nM. Cells were then treated with test compounds at various concentrations with a final concentration of 0.5% DMSO/well, and then incubated at 37° C./5% CO2 for 24 hr. 100 μl of CellTiter-Glo® Reagent (Promega Corporation, Madison, WI) was added to each well and processed according manufacturer's protocol. Results were analyzed and IC50-values were calculated in GraphPad 7 software.

The test system of the next experiment is NCIH727. Nature of the experiment: CellTiter-Glo Reagent cancer cell line proliferation assay, NCIH727. The format is cell-based, human. Particulars: Homo sapiens, NCI-H727, 24 h, NCIH727, KRAS(G12V) heterozygous.
From the text: as §1, §2
On the technique in general: Cellular ATP, detected with luciferase, serves as a proxy for viable cell number.

In another experiment the test system is LU65A. Nature of the experiment: CellTiter-Glo Reagent cancer cell line proliferation assay, LU65A. The class given is cell-based, human. The conditions noted are these: Homo sapiens, 24 h, KRAS(G12C) heterozygous.
From the text: as §1, §2

The test system of a further experiment is AGS. Nature of the experiment: CellTiter-Glo Reagent cancer cell line proliferation assay, AGS. The class given is cell-based, human. The conditions noted are these: Homo sapiens, 24 h, KRAS(G12D) heterozygous.
From the text: as §1, §2

The next experiment concerns MKN1. Description: CellTiter-Glo Reagent cancer cell line proliferation assay, MKN1. The class given is cell-based. Particulars: Homo sapiens, MKN-1; MKN1, KRAS (wt), 24 hr.
From the text: as §1, §2

For the next experiment, the target named is KRAS(G12D) (Homo sapiens, UniProt P01116, G12D). Description: cell-based. The class given is cell-based. On the set-up: Cell lines SW1990 and GP2D that express KRAS(G12D); host or cells: SW1990. The conditions noted are these: SW1990, read-out: WB data SW1990 DMax. How it is done: Cell lines were cultured according to ATCC, JCRB and Sigma Aldrich recommendations.
Cells were then washed with cold PBS, aspirated and cold RIPA buffer containing a protease/phosphatase inhibitor cocktail was added to lyse cells. After centrifugation, the total protein concentrations of cell lysates were determined using the BCA protein assay. Samples were normalized for equivalent protein concentrations, 5× SDS-PAGE loading buffer added and denatured at 100° C. for 10 min. 20 μl of each sample/well was loaded on a SDS-PAGE gel and electrophoresed for 20 min at 80 V, then 120 V for 1.5 hr. Gels were then electroblotted to nitrocellulose membranes using a wet-transfer method at 250 mA for 2.5 hr. Membranes were incubated with blocking buffer for 1 hr and washed 3 times with TBST for 5 min. Membranes were then incubated with anti-KRAS (Sigma-Aldrich, #SAB1404011) and anti-β-Actin monoclonal antibodies (Cell Signaling Technology, #3700) diluted in blocking buffer at 4° C. overnight per the manufacturer's recommendations. After washing 3 times, blots were incubated with appropriately labeled secondary antibodies for 1 hr at room temperature and washed again. Fluorescence imaging and quantitation was performed using a LI-COR Odyssey. Results was analyzed using GraphPad Prism 7 software. Compound concentrations that induced KRAS degradation (DC50 and DCmax) were calculated using GraphPad Prism 7 software.

KRAS(G12D), sequence (P01116 1-188 isoform P01116-2 G12D): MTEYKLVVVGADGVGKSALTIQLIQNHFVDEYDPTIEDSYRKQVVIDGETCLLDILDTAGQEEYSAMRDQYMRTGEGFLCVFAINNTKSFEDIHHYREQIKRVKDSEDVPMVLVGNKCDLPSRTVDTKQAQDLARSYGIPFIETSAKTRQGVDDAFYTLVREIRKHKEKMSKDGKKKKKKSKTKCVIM

Consider `C#Cc1c(F)ccc2cc(O)cc(-c3ncc4c(N5CC6CCC(C5)N6C(=O)/C(C#N)=C/C5CC5)nc(OCC5(CN6CCN(CC7CCN(c8ccc9c(c8)CN(C8CCC(=O)NC8=O)C9=O)CC7)CC6)CC5)nc4c3F)c12` (centres unmarked) [Compound 124], for which the IC50 is 100 to 1000 nM in the experiment with GP2D; more than 1000 nM with NCIH727; less than 100 nM with LU65A; 100 to 1000 nM with AGS; more than 1000 nM in the experiment on MKN1.
For `C#Cc1c(F)ccc2cc(O)cc(-c3nc(OC)c4c(N5CC6CCC(C5)N6C(=O)CCC#N)nc(OCC5(CN6CCN(CC7CCN(c8ccc9c(c8)CN(C8CCC(=O)NC8=O)C9=O)CC7)CC6)CC5)nc4c3F)c12` (centres unmarked) [Compound 117], the IC50 in the experiment with GP2D is less than 100 nM; in the experiment with NCIH727, less than 100 nM; in the experiment with LU65A it was less than 100 nM; in the experiment on AGS it was less than 100 nM; in the experiment with MKN1, 100 to 1000 nM.
On to `C#Cc1c(F)ccc2cc(O)cc(-c3nc(OC)c4c(N5CCN(C(=O)C=C)[C@@H](CC#N)C5)nc(OCC5(CN6CCN(CC7CCN(c8ccc9c(c8)CN(C8CCC(=O)NC8=O)C9=O)CC7)CC6)CC5)nc4c3F)c12` (some centres unmarked) [Compound 125], for which the IC50 in the experiment on LU65A and with MKN1 was less than 100 nM in each case.
Regarding `C#Cc1cccc2cc(O)cc(-c3ncc4c(N5CC6CCC(C5)N6)nc(OCC5(CN6CCN(CC7CCN(CC(=O)N[C@@H](C(=O)N8C[C@@H](O)C[C@@H]8C(=O)NCc8ccc(-c9scnc9C)cc8)C(C)(C)C)CC7)CC6)CC5)nc4c3F)c12` [Compound 52], the Dmax at KRAS(G12D) is more than 50%.
For `C#Cc1c(F)ccc2cc(O)cc(-c3nc(OC)c4c(N5CC6CCC(C5)N6C(=O)NCC#N)nc(OCC5(CN6CCN(CC7CCN(c8ccc9c(c8)CN(C8CCC(=O)NC8=O)C9=O)CC7)CC6)CC5)nc4c3F)c12` (centres unmarked) [Compound 122], the IC50 in the experiment with GP2D is less than 100 nM; with NCIH727 it was 100 to 1000 nM; in the experiment with LU65A, less than 100 nM; in the experiment on AGS, less than 100 nM; with MKN1, more than 1000 nM.
For the molecule `C#Cc1c(F)ccc2cc(O)cc(-c3ncc4c(N5CC6CCC(C5)N6)nc(OCC5(CN6CCC(N7CCC(c8ccc9c(c8)CN(C8CCC(=O)NC8=O)C9=O)CC7)CC6)CC5)nc4c3F)c12` (centres unmarked) [Compound 77], on KRAS(G12D), the Dmax is more than 50%.
With `[2H]C([2H])([2H])Oc1nc(-c2cc(O)cc3ccc(F)c(C#C)c23)c(F)c2nc(OCC3(CN4CCN(CC5CCN(c6ccc7c(c6)CN(C6CCC(=O)NC6=O)C7=O)CC5)CC4)CC3)nc(N3CC4CCC(C3)N4CC3CC3)c12` (centres unmarked) [Compound 99], the IC50 in the experiment with GP2D was 100 to 1000 nM; with AGS, more than 1000 nM.
For the molecule `[2H]C([2H])([2H])Oc1nc(-c2cc(O)cc3ccc(F)c(C#C)c23)c(F)c2nc(OCC3(CN4CCN(CC5CCN(c6ccc7c(c6)CN(C6CCC(=O)NC6=O)C7=O)CC5)CC4)CC3)nc(N3CC4CCC(C3)N4C(=O)C(C)CC#N)c12` (centres unmarked) [Compound 116], the IC50 with GP2D is 100 to 1000 nM; with NCIH727, more than 1000 nM; with LU65A it was 100 to 1000 nM; in the experiment on AGS it was 100 to 1000 nM; in the experiment on MKN1 it was 100 to 1000 nM.
Turning to `C#Cc1c(F)ccc2cc(O)cc(-c3nc(OC)c4c(N5CC6CCC(C5)N6)nc(OCC5(CN6CCN(C7CCN(c8ccc9c(c8)CN(C8CCC(=O)NC8=O)C9=O)CC7)CC6)CC5)nc4c3F)c12` (centres unmarked) [Compound 82], the Dmax on KRAS(G12D) was more than 50%.
As to `C#Cc1c(F)ccc2cc(O)cc(-c3ncc4c(N5C[C@H]6CC[C@@H](C5)N6)nc(OCC5(CN6CCC(CN7CCC(c8ccc9c(c8)CN(C8CCC(=O)NC8=O)C9=O)C(F)(F)C7)CC6)CC5)nc4c3F)c12` (stereo partly drawn) [Compound 93, 3-(5-(1-((1-((1-(((4-((1R,5S)-3,8-diazabicyclo[3.2.1]octan-3-yl)-7-(8-ethynyl-7-fluoro-3-hydroxynaphthalen-1-yl)-8-fluoropyrido[4,3-d]pyrimidin-2-yl)oxy)methyl)cyclopropyl)methyl)piperidin-4-yl)methyl)-3,3-difluoropiperidin-4-yl)-1-oxoisoindolin-2-yl) piperidine-2,6-dione], the IC50 in the experiment on GP2D and with AGS was less than 100 nM throughout.
`C#Cc1c(F)ccc2cc(O)cc(-c3ncc4c(N5CC6CCC(C5)N6C(=O)CC(C)(C)C#N)nc(OCC5(CN6CCN(CC7CCN(c8ccc9c(c8)CN(C8CCC(=O)NC8=O)C9=O)CC7)CC6)CC5)nc4c3F)c12` (centres unmarked) [Compound 131]: the IC50 with NCIH727, in the experiment on LU65A and in the experiment with AGS was less than 100 nM throughout.
As for `C#Cc1c(F)ccc2cc(O)cc(-c3ncc4c(N5CC6CCC(C5)N6C(=O)CC(C)C#N)nc(OCC5(CN6CCN(CC7CCN(c8ccc(NC9CCC(=O)NC9=O)cc8F)CC7)CC6)CC5)nc4c3F)c12` (centres unmarked) [Compound 137], the IC50 with NCIH727, with LU65A and with AGS was less than 100 nM each time.
Turning to `C#Cc1c(F)ccc2cc(O)cc(-c3nc(OC(F)(F)F)c4c(N5CC6CCC(C5)N6C(=O)CCC#N)nc(OCC5(CN6CCN(CC7CCN(c8ccc9c(c8)CN(C8CCC(=O)NC8=O)C9=O)CC7)CC6)CC5)nc4c3F)c12` (centres unmarked) [Compound 151], the IC50 in the experiment on NCIH727, in the experiment with LU65A and in the experiment on AGS was less than 100 nM each time.
For the molecule `C#Cc1c(F)ccc2cc(O)cc(-c3nc(OC)c4c(N5CC6CCC(C5)N6C(=O)CC(C)C#N)nc(OCC5(CN6CCN(CC7CCN(c8ccc9c(N%10CCC(=O)NC%10=O)nn(C)c9c8)CC7)CC6)CC5)nc4c3F)c12` (centres unmarked) [Compound 152], the IC50 in the experiment on NCIH727, in the experiment on LU65A and in the experiment on AGS was less than 100 nM throughout.
`C#Cc1c(F)ccc2cc(O)cc(-c3nc(OC)c4c(N5CC6CCC(C5)N6C(=O)C[C@@H](C)C#N)nc(OCC5(CN6CCN(CN7CCC(N8Cc9cc%10c(cc9C8)C(=O)N(C8CCC(=O)NC8=O)C%10)CC7)CC6)CC5)nc4c3F)c12` (some centres unmarked) [Compound 162]: the IC50 in the experiment on NCIH727, with LU65A and in the experiment on AGS was less than 100 nM in each case.
As to `C#Cc1c(F)ccc2cc(O)cc(-c3ncc4c(N5CC6CCC(C5)N6C(=O)CC(C)C#N)nc(OCC5(CN6CCN(CC7CCN(c8ccc9c(c8)n(C)c(=O)n9C8CCC(=O)NC8=O)CC7)CC6)CC5)nc4c3F)c12` (centres unmarked) [Compound 136], the IC50 with NCIH727, in the experiment on LU65A and in the experiment on AGS was less than 100 nM each time.
On to `C#Cc1c(F)ccc2cc(O)cc(-c3nc(OC)c4c(N5CC6CCC(C5)N6C(=O)CC(C)C#N)nc(OCC5(CN6CCN(CC7CCN(c8cccc(NC9CCC(=O)NC9=O)c8)CC7)CC6)CC5)nc4c3F)c12` (centres unmarked) [Compound 142], for which the half-maximal inhibitory concentration (IC50) in the experiment on NCIH727, in the experiment on LU65A and in the experiment on AGS was less than 100 nM each time.
Take `C#Cc1c(F)ccc2cc(O)cc(-c3ncc4c(N5CC6CCC(C5)N6C(=O)NC5CCC5)nc(OCC5(CN6CCN(CC7CCN(c8ccc9c(c8)CN(C8CCC(=O)NC8=O)C9=O)CC7)CC6)CC5)nc4c3F)c12` (centres unmarked) [Compound 128]: the IC50 with NCIH727, in the experiment on LU65A and in the experiment with AGS was less than 100 nM each time.
On to `C#Cc1c(F)ccc2cc(O)cc(-c3ncc4c(N5CC6CCC(C5)N6C(=O)CC(C)C#N)nc(OCC5CCCN(CC6CCN(c7ccc8c(c7)CN(C7CCC(=O)NC7=O)C8=O)CC6)C5)nc4c3F)c12` (centres unmarked) [Compound 133], for which the IC50 in the experiment on NCIH727, with LU65A and in the experiment with AGS was less than 100 nM in each case.
Consider `N#CCCC(=O)N1C2CCC1CN(c1nc(OCC3(CN4CCN(CC5CCN(c6ccc7c(c6)CN(C6CCC(=O)NC6=O)C7=O)CC5)CC4)CC3)nc3c(F)c(-c4cc(N)cc(Cl)c4C(F)(F)F)c(Cl)cc13)C2` (centres unmarked) [Compound 153], for which the IC50 in the experiment on NCIH727, in the experiment on LU65A and in the experiment with AGS was less than 100 nM each time.

The record behind these values is patent US20260325654A1, “METHODS AND COMPOSITIONS FOR TARGETED PROTEIN DEGRADATION” (Ranok Therapeutics (Hangzhou) Co. Ltd., priority 2023, published 2026).
